Results reported in patent US20260315604A1, “OTUB1 Small-Molecule Binders and OTUB1-recruiting Deubiquitinase-targeting Chimeras (DUBTACs)” (ICAHN SCHOOL OF MEDICINE AT MOUNT SINAI, priority 2023, published 2026).

Molecular target: T1, Human OTUB1 wild-type (Homo sapiens, UniProt Q96FW1)
T1 construct: His tag (N); made in house; host or cells: E. coli BL21-CodonPlus (DE3)-RIPIL
Test: Covalent modification of OTUB1 (adduct formation), mass spectrometry-based assay (OTUB1 covalent binders; selected CFTR or cGAS based bivalent compounds)
Assay type: binding
Details: covalent adduct formation with OTUB1 protein
Method: OTUB1 covalent binders were tested for their ability to form the covalent adduct with OTUB1 protein using a mass-spectrometry based assay.
Example 389. Assessment of the Covalent Modification of OTUB1 Protein by Selected OTUB1 Covalent Binders Using a Mass Spectrometry-Based Assay (FIG. 1)
OTUB1 protein (10 μM) was incubated with selecting compounds (2500 μM) at RT for 1 h. The adduct was qualified by mass spectrometry-based assays.
Example 398. Assessment of the Covalent Modification of OTUB1 Protein by Selected CFTR Based Bivalent Compounds Using Mass Spectrometry-Based Assay (FIG. 10)
OTUB1 protein (10 μM) was incubated with selecting bivalent compounds (2500 μM) at RT for 1 h. The adduct was qualified by mass spectrometry-based assays.
Human OTUB1 wild-type (NM_017670.3) and C23S mutation genes were optimized based on the codon preference of E. coli, synthesized and cloned into pET15b vector with a N-terminal His tag by Genscript, respectively. The plasmid was transferred to BL21-CodonPlus (DE3)-RIPIL Competent Cell (230280, Agilent Technologies) and the recombinant protein was induced expressed by 0.5 mM IPTG at 16° C. with shaking 200 rpm for 18 h. Induced cells were harvested by centrifugation and resuspended in cold lysis buffer (50 mM Tris-H—Cl pH 7.5, 150 mM NaCl, 25 mM imidazole pH 7.5, 0.01% IGEPAL, 5% Glycerol) in the presence of Pierce Protease Inhibitor tablets (PIA32963, Fisher Scientific) and 2 mM TCEP pH 7.5.
The cells were lysed by sonication, clarified by centrifugation, and the filtered supernatant loaded onto a 5 ml HisTrap HP affinity column (17524802, Cytiva) in AKTA system. The His-recombinant protein bound to column was washed using buffer A (50 mM Tris-HCl pH 7.5, 150 mM NaCl, 25 mM imidazole pH 7.5, 0.01% IGEPAL, 5% Glycerol) and eluted with buffer B (50 mM Tris-HCl pH 7.5, 150 mM NaCl, 250 mM imidazole pH 7.5, 0.01% IGEPAL, 5% Glycerol). The eluted fractions containing OTUB1 protein were concentrated and subjected to size exclusion chromatography using a 320 mL HiLoad 26/600 Superdex 200 pg column (28989336, Cytiva) under the buffer condition ([…] Tris-HCl pH 7.5, 150 mM NaCl, and 2 mM TCEP pH 7.5). The eluted fractions containing OTUB1 protein were concentrated, divided into aliquots and stored at −80° C. freezer for further usage.
Quality control of the OTUB1 proteins was performed by SDS-PAGE, Nanodrop and mass spectrometry.
Mass Spectrometry-Based Analysis of OTUB1-Covalent Ligand Adducts
To screen the covalent ligands, recombinant OTUB1 protein (10 μM) was respectively incubated with DMSO, EN523 or seven novel ligands (2500 μM) in reaction buffer (50 mM Tris-HCl pH 7.5, 150 mM NaCl, and 0.5 mM TCEP pH 7.5) for 1 h at room temperature.
Then, the total 500 μL reaction solution was exchanged and concentrated to 50 μL 50 mM ammonium bicarbonate with a 10 kDa MWCO centrifugal filter unit (UFC901024, Millipore) and diluted in MS buffer (30% ACN, 0.2% FA) to a final concentration of […]. Mass spectrometry detection was performed by an Agilent LC/MSD Time-Of-Flight (TOF) mass spectrometer (Agilent Technologies) equipped with an electrospray ion source. The data was analyzed by TOF Protein Confirmation Software. All experiments were performed in duplicate.

T1 sequence (Q96FW1 whole entry): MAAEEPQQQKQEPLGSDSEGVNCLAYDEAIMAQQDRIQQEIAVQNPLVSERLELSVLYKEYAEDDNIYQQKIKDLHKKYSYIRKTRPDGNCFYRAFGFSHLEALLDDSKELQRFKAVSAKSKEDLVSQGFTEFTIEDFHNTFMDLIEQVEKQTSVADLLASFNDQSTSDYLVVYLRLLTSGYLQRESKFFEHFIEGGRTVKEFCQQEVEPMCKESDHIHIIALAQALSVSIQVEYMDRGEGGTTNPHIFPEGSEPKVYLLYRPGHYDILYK

Row | SMILES | % of OTUB1 modified [%]
1 | Cc1ccc(C(=O)NC2CN(C(=O)C#CCN(C)C)C2)s1 [XS224-150, N-(1-(4-(dimethylamino)but-2-ynoyl)azetidin-3-yl)-5-methylthiophene-2-carboxamide] | 73
2 | CN(C)C(C)(C)C#CC(=O)N1CC(C(=O)Nc2cc3ccccc3s2)C1 [XS224-107, N-(benzo[b]thiophen-2-yl)-1-(4-(dimethylamino)-4-methylpent-2-ynoyl)azetidine-3-carboxamide] | 60
3 | Cc1ccc(C(=O)N2CC(NC(=O)C#CCN(C)C)C2)s1 [XS224-144, 4-(dimethylamino)-N-(1-(5-methylthiophene-2-carbonyl)azetidin-3-yl)but-2-ynamide] | 90
4 | CC(C)c1ccc(NC(=O)C2CN(C(=O)C#CC(C)(C)N(C)C)C2)s1 [XS224-117, 1-(4-(dimethylamino)-4-methylpent-2-ynoyl)-N-(5-isopropylthiophen-2-yl)azetidine-3-carboxamide] | 60
5 | CC(=O)N1CCC(c2ccc(C(=O)N3CC4CC(C3)N4C(=O)/C=C/CN(C)C)s2)CC1 [XS197-72, (E)-1-(3-(5-(1-acetylpiperidin-4-yl)thiophene-2-carbonyl)-3,6-diazabicyclo[3.1.1]heptan-6-yl)-4-(dimethylamino)but-2-en-1-one] | 90
6 | CN(C)C/C=C/C(=O)N1CC(NC(=O)c2cc3c(s2)CCCC3)C1 [XS224-157, (E)-N-(1-(4-(dimethylamino)but-2-enoyl)azetidin-3-yl)-4,5,6,7-tetrahydrobenzo[b]thiophene-2-carboxamide] | 49
7 | CN(C)C/C=C/C(=O)N1CCN(c2cc3ccccc3o2)C(=O)C1 [XS185-78, (E)-1-(benzofuran-2-yl)-4-(4-(dimethylamino)but-2-enoyl)piperazin-2-one] | 40
8 | CN(C)C/C=C/C(=O)N1C2CCC1C(=O)N(C1CCCC1)C2 (stereo not shown) [XS190-144, (E)-3-cyclopentyl-8-(4-(dimethylamino)but-2-enoyl)-3,8-diazabicyclo[3.2.1]octan-2-one] | 80
9 | CN(C)C(C)(C)C#CC(=O)N1CC(C(=O)Nc2csc3ccccc23)C1 [XS224-119, N-(benzo[b]thiophen-3-yl)-1-(4-(dimethylamino)-4-methylpent-2-ynoyl)azetidine-3-carboxamide] | 60
10 | CN1CC2CCC(C1=O)N2C(=O)CCl (stereo not shown) [XS197-29, 8-(2-chloroacetyl)-3-methyl-3,8-diazabicyclo[3.2.1]octan-2-one] | 75
11 | CN(C)C/C=C/C(=O)N1CC(NC(=O)c2cc3ccccc3s2)C1 [XS224-154, (E)-N-(1-(4-(dimethylamino)but-2-enoyl)azetidin-3-yl)benzo[b]thiophene-2-carboxamide] | 80
12 | Cc1ccc(C(=O)N2CC3CC(C2)N3C(=O)/C=C/CN(C)C)o1 [XS190-157, (E)-4-(dimethylamino)-1-(3-(5-methylfuran-2-carbonyl)-3,6-diazabicyclo[3.1.1]heptan-6-yl)but-2-en-1-one] | 80
13 | COCc1ccc(C(=O)N2CC3CC(C2)N3C(=O)/C=C/CN(C)C)s1 [XS190-138, (E)-4-(dimethylamino)-1-(3-(5-(methoxymethyl)thiophene-2-carbonyl)-3,6-diazabicyclo[3.1.1]heptan-6-yl)but-2-en-1-one] | 45
14 | CN(C)C/C=C/C(=O)N1C2CCC1C(=O)N(c1ccc(-c3ccccc3)s1)C2 (stereo not shown) [XS190-45, (E)-8-(4-(dimethylamino)but-2-enoyl)-3-(5-phenylthiophen-2-yl)-3,8-diazabicyclo[3.2.1]octan-2-one] | 90
15 | CC(C)c1ccc(C(=O)N2CC3CC(C2)N3C(=O)/C=C/CN(C)C)s1 [XS197-49, (E)-4-(dimethylamino)-1-(3-(5-isopropylthiophene-2-carbonyl)-3,6-diazabicyclo[3.1.1]heptan-6-yl)but-2-en-1-one] | 85
16 | C=C(C#N)CN1CCN(c2ccc(C)s2)C(=O)C1 [XS185-87, 2-((4-(5-methylthiophen-2-yl)-3-oxopiperazin-1-yl)methyl)acrylonitrile] | 1
17 | CC(=O)N1CC2(CCC(C(=O)N3CC4CC(C3)N4C(=O)/C=C/CN(C)C)CC2)C1 [XS209-54, (E)-1-(3-(2-acetyl-2-azaspiro[3.5]nonane-7-carbonyl)-3,6-diazabicyclo[3.1.1]heptan-6-yl)-4-(dimethylamino)but-2-en-1-one] | 35
18 | CN(C)C/C=C/C(=O)N1C2CC1CN(C(=O)c1ccccc1)C2 [XS190-126, (E)-1-(3-benzoyl-3,6-diazabicyclo[3.1.1]heptan-6-yl)-4-(dimethylamino)but-2-en-1-one] | 49

Other lines, results leading:

Row | % of OTUB1 modified [%] | SMILES
19 | 90 | Cc1cc(N2CCN(C(=O)/C=C/CN(C)C)CC2=O)sc1C [XS175-70, (E)-4-(4-(dimethylamino)but-2-enoyl)-1-(4,5-dimethylthiophen-2-yl)piperazin-2-one]
20 | 2 | Cc1ccc(NC(=O)C2CC3CCC(C2)N3C(=O)/C=C/CN(C)C)s1 (stereo not shown) [XS209-122, (E)-8-(4-(dimethylamino)but-2-enoyl)-N-(5-methylthiophen-2-yl)-8-azabicyclo[3.2.1]octane-3-carboxamide]
21 | 90 | CC(=O)N1CCC(c2ccc(N3CC4CCC(C3=O)N4C(=O)/C=C/CN(C)C)s2)CC1 (stereo not shown) [XS197-145, (E)-3-(5-(1-acetylpiperidin-4-yl)thiophen-2-yl)-8-(4-(dimethylamino)but-2-enoyl)-3,8-diazabicyclo[3.2.1]octan-2-one]
22 | 8 | CC(C)c1ccc(NC(=O)C2CCN(C(=O)/C=C/CN(C)C)C2)s1 (stereo not shown) [XS175-180, (E)-1-(4-(dimethylamino)but-2-enoyl)-N-(5-isopropylthiophen-2-yl)pyrrolidine-3-carboxamide]
23 | 1 | Cc1ccc(N2CC3(CCN(C(=O)/C=C/CN(C)C)CC3)C2)s1 [XS185-109, (E)-4-(dimethylamino)-1-(2-(5-methylthiophen-2-yl)-2,7-diazaspiro[3.5]nonan-7-yl)but-2-en-1-one]
24 | 20 | Cc1ccc(NC(=O)C2CCCCN2C(=O)/C=C/CN(C)C)s1 (stereo not shown) [XS175-148, (E)-1-(4-(dimethylamino)but-2-enoyl)-N-(5-methylthiophen-2-yl)piperidine-2-carboxamide]
25 | 23 | Cc1ccc(N2CCC3(CC2)CN(C(=O)/C=C/CN(C)C)C3)s1 [XS185-101, (E)-4-(dimethylamino)-1-(7-(5-methylthiophen-2-yl)-2,7-diazaspiro[3.5]nonan-2-yl)but-2-en-1-one]
26 | 3 | CC(C)c1ccc(NC(=O)C2CCN(C(=O)/C=C/CN(C)C)CC2)s1 [XS175-178, (E)-1-(4-(dimethylamino)but-2-enoyl)-N-(5-isopropylthiophen-2-yl)piperidine-4-carboxamide]
27 | 55 | CN(C)C/C=C/C(=O)N1CCN(c2cc3ccccc3[nH]2)C(=O)C1 [XS185-116, (E)-4-(4-(dimethylamino)but-2-enoyl)-1-(1H-indol-2-yl)piperazin-2-one]
28 | 8 | Cc1ccc(CN2CC3CC(C2)N3C(=O)/C=C/CN(C)C)s1 [XS190-158, (E)-4-(dimethylamino)-1-(3-((5-methylthiophen-2-yl)methyl)-3,6-diazabicyclo[3.1.1]heptan-6-yl)but-2-en-1-one]
